These molecules were tested against ROCK2 (human) (UniProt O75116) (assay: Inhibition of ROCK2 Kinase Activity).
Sequence of ROCK2 (human) (O75116 whole entry, looked up): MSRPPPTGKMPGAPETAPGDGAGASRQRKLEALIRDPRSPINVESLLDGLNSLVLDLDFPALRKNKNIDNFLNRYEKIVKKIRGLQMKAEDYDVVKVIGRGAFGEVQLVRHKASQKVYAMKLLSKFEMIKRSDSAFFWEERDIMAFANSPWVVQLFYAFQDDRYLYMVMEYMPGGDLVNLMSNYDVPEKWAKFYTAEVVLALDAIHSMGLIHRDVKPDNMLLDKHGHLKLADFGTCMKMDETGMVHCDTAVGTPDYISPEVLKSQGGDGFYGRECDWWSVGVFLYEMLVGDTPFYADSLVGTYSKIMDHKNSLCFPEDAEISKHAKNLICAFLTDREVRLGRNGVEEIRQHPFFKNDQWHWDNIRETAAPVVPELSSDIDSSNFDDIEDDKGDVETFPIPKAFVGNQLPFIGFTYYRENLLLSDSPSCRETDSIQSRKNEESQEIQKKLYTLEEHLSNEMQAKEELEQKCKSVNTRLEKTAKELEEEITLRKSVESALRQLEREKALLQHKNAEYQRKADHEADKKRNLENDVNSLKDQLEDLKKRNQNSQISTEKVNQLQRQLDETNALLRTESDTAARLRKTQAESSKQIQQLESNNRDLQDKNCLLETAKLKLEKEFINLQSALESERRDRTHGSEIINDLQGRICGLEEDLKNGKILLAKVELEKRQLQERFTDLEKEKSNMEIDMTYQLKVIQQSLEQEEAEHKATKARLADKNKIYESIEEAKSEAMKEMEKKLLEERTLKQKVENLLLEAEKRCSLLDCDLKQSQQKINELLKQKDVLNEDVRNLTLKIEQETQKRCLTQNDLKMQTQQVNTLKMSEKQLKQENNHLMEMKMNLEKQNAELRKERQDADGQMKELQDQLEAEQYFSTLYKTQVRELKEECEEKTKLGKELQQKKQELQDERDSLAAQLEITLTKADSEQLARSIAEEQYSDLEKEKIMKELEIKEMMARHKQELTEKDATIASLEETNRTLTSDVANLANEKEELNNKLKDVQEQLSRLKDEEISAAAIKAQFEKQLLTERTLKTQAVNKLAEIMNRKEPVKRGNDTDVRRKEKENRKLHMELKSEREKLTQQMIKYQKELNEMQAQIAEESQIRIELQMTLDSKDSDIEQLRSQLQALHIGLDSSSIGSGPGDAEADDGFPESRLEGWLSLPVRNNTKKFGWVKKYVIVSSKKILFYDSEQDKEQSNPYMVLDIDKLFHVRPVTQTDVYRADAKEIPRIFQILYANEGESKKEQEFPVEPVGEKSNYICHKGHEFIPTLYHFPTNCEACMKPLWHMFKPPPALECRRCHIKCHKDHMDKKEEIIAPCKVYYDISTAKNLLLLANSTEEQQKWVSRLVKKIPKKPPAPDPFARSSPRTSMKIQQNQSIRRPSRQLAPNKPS
`CC(C(=O)NCc1nc(-c2ccncc2)n[nH]1)c1ccc(O)cc1` (centres undefined) gave an IC50 of over 5 µM.
For `N#Cc1cccc(C(=O)NCc2nc(-c3c[nH]c4ncccc34)n[nH]2)c1`, the IC50 was over 5 µM.
With `O=C(NCc1nc(-c2c[nH]c3ncccc23)n[nH]1)c1ccc(-c2ccc(O)cc2)cc1` the IC50 was over 5 µM.
With `O=C(NCc1nc(-c2c[nH]c3ncccc23)n[nH]1)c1c(F)c(F)c(F)c(F)c1F` the IC50 was over 5 µM.
For `O=Cc1ccccc1C(=O)NCc1nc(-c2c[nH]c3ncccc23)n[nH]1`, the IC50 was over 5 µM.
For `COc1cc(C(=O)NCc2nc(-c3c[nH]c4ncccc34)n[nH]2)cc(Cl)n1`, the IC50 was over 5 µM.
`Cc1c(C(=O)NCc2nc(-c3c[nH]c4ncccc34)n[nH]2)oc2ccccc12` gave an IC50 of over 5 µM.
`O=C(NCc1nc(-c2c[nH]c3ncccc23)n[nH]1)c1cc(F)cc(F)c1` gave an IC50 of over 5 µM.
Molecule `CS(=O)(=O)Nc1cccc(C(=O)NCc2nc(-c3c[nH]c4ncccc34)cs2)c1` has an IC50 of at most 5 µM.
Work on `CC(=O)c1ccc(C(=O)NCc2nc(-c3ccncc3)n[nH]2)cc1` yielded an IC50 of at most 5 µM.
In the case of `Cc1ccc(SCC(=O)NCc2nc(-c3ccncc3)n[nH]2)cc1`, the IC50 is reported as over 5 µM.
`CCOc1ccccc1C(=O)NCc1nc(-c2c[nH]c3ncccc23)n[nH]1` was tested, and the IC50 was over 5 µM.
`O=C(NCc1nc(-c2ccncc2)n[nH]1)c1ccc(CO)cc1` showed an IC50 of at most 5 µM.
With `O=C(NCc1ncc(-c2ccncc2)s1)c1cccs1` the IC50 was over 5 µM.
With `O=C(NCc1nc(-c2ccncc2)n[nH]1)c1cccs1` the IC50 was at most 5 µM.
In the case of `O=C(NCc1nc(-c2c[nH]c3ncccc23)n[nH]1)c1cccc(F)c1F`, the IC50 is reported as over 5 µM.
For `CC(=O)NCC(=O)NCc1nc(-c2ccncc2)n[nH]1`, the IC50 was over 5 µM.
With `O=C(CCc1ccccc1O)NCc1nc(-c2ccncc2)n[nH]1` the IC50 was over 5 µM.
With `Cc1ccc(C(=O)CCC(=O)NCc2nc(-c3c[nH]c4ncccc34)n[nH]2)cc1` the IC50 was over 5 µM.
With `COc1ccc([N+](=O)[O-])c(C(=O)NCc2nc(-c3ccncc3)n[nH]2)c1` the IC50 was over 5 µM.
In the case of `Cc1c(O)ccc(C(=O)NCc2nc(-c3ccncc3)n[nH]2)c1O`, the IC50 is reported as at most 5 µM.
With `COc1cc(OC)cc(C(=O)NCc2nc(-c3ccncc3)n[nH]2)c1` the IC50 was over 5 µM.
With `O=Cc1ccc(C(=O)NCc2nc(-c3c[nH]c4ncccc34)n[nH]2)cc1` the IC50 was over 5 µM.
With `O=C(NCc1nc(-c2c[nH]c3ncccc23)n[nH]1)c1cc2ccccc2o1` the IC50 was over 5 µM.
Molecule `O=C(NCc1nc(-c2c[nH]c3ncccc23)n[nH]1)c1ccc([N+](=O)[O-])c(O)c1` has an IC50 of over 5 µM.
`COc1ccc(C(=O)NCc2nc(-c3c[nH]c4ncccc34)n[nH]2)c(OC)c1` was tested, and the IC50 was over 5 µM.
Work on `O=C(NCc1nc(-c2ccncc2)n[nH]1)c1cccc(O)c1` yielded an IC50 of over 5 µM.
Work on `COc1ccc(Br)c(C(=O)NCc2nc(-c3ccncc3)n[nH]2)c1` yielded an IC50 of over 5 µM.
With `O=C(NCc1c[nH]c(-c2ccncc2)n1)c1ccc(O)cc1O` the IC50 was at most 5 µM.
In the case of `O=C(NCc1nc(-c2ccncc2)n[nH]1)c1cc(O)ccc1O`, the IC50 is reported as at most 5 µM.
For `O=C(NCc1nc(-c2ccncc2)n[nH]1)c1cc(F)ccc1[N+](=O)[O-]`, the IC50 was over 5 µM.
Molecule `CCc1cccc(C(=O)NCc2nc(-c3ccncc3)n[nH]2)c1O` has an IC50 of at most 5 µM.
With `O=C(NCc1nc(-c2ccncc2)n[nH]1)c1cccc(Br)c1` the IC50 was over 5 µM.
`O=C(NCc1nc(-c2ccncc2)n[nH]1)c1ccc(F)cc1Cl` gave an IC50 of over 5 µM.
Molecule `O=C(NCc1nc(-c2c[nH]c3ncccc23)n[nH]1)c1cccc(Cl)c1Cl` has an IC50 of over 5 µM.
Work on `O=C(NCc1nc(-c2ccncc2)n[nH]1)c1c(F)cccc1F` yielded an IC50 of over 5 µM.
With `O=C(NCc1nc(-c2ccncc2)n[nH]1)c1cc(Cl)ccc1O` the IC50 was over 5 µM.
`O=C(NCc1nc(-c2ccncc2)n[nH]1)c1ccncc1Cl` gave an IC50 of over 5 µM.
`O=C(NCc1nc(-c2ccncc2)n[nH]1)c1cc(Cl)ccn1` gave an IC50 of over 5 µM.
Molecule `Cc1ccccc1OCC(=O)NCc1nc(-c2ccncc2)n[nH]1` has an IC50 of over 5 µM.
`Cc1ccccc1CCC(=O)NCc1nc(-c2ccncc2)n[nH]1` showed an IC50 of over 5 µM.
In the case of `COc1cc(C(=O)NCc2nc(-c3c[nH]c4ncccc34)n[nH]2)cc(OC)c1O`, the IC50 is reported as over 5 µM.
`O=C(NCc1nc(-c2ccncc2)n[nH]1)c1nccs1` showed an IC50 of at most 5 µM.
`CC(C)(C)OC(=O)N1CCCCC1C(=O)NCc1nc(-c2c[nH]c3ncccc23)n[nH]1` (centres undefined) was tested, and the IC50 was over 5 µM.
